# Values joined by “and” are separate entries in the source; they are usually repeats but may differ in a detail not shown here. Equal entries are not always repeated. “Also recorded” adds a separate entry of the source.
# Legend:
# [1] = tested on: primary WT CFTR-expressing HBEs; test: Ussing chamber Isc, forskolin-stimulated Cl- secretion; format: cell-based, human; settings: for effect on the bumetanide-insensitive current: applied after forskolin and bumetanide, VX-445 10 µM, acetazolamide 1 µM
# Excerpt: (§1) Primary human bronchial epithelial cells (HBEs) were collected from unused or discarded samples from the Center for Organ Recovery and Education via the University of Pittsburgh Pulmonary, Allergy, Critical Care, and Sleep Medicine Lung Biobank and Repository. All experimental procedures involving the use of HBEs were approved by the institutional review board (IRB STUDY19090084) and the Committee for Oversight of Research and Clinical Training Involving Decedents (CORID number 451) at the University of Pittsburgh. At all times, authors were blind to the identity of HBE donors. HBEs were cultured using the Vertex method ([72]). Studies were carried out on WT CFTR HBEs from 11 ([13]) donors and homozygous F508del/F508del CFTR HBEs from five ([5]) separate donors. HBEs were plated on Costar Transwell permeable supports ([…], 6.5 mm insert, polyester membrane, Corning) and grown at an air–liquid interface for 5+ weeks in HBE differentiation medium containing 2% Ultroser-G. Basolateral media were replaced three times per week. For whole-cell patch-clamp studies, HBEs were maintained in BronchiaLife airway media (LifeLine Cell Technology, LS-1047) and plated onto poly-L-lysine-coated coverslips (see below).
# (§2) Costar Transwell inserts were mounted in a modified Ussing chamber (P2300, Physiologic Instruments) and the monolayers continuously short-circuited (VCC MC8, Physiologic Instruments) by forcing the transepithelial voltage to 0 mV. Short-circuit current (Isc) measurements were taken in symmetric solutions, containing (in mM): 120 NaCl, 25 NaHCO3, 3.3 KH2PO4, 0.8 K2HPO4, 1.2 CaCl2, 1.2 MgCl2, and 10 glucose. The pH of the solution is 7.4 when gassed with 95% O2–5% CO2 at 37°C. Compounds were added cumulatively following the establishment of a new stable current response. Amiloride was added to the apical membrane, while all other compounds were added to both membranes due to their lipophilic nature. In all experiments, 10 µM amiloride was used to inhibit sodium absorption. Percent inhibition was calculated as the change in Isc (ΔIsc) between the forskolin or DCEBIO stable current level and the Isc following addition of the compound being assessed divided by the ΔIsc between the stable forskolin- or DCEBIO-induced Isc and the Isc following bumetanide addition.
# KCa3.1 [2] = target: T1, KCa3.1 (Homo sapiens, UniProt O15554); test: Whole-cell patch-clamp on HEK cells heterologously expressing KCa3.1; format: cell-based; settings: for effect on KCa3.1 current: 10 µM, data not shown
# T1 construct: expressed in transfected cells
# Experimental: (§3) Our Isc results are consistent with VX-445 inhibiting KCa3.1 in HBEs. To directly assess this possibility, we initially carried out whole-cell patch-clamp studies on undifferentiated HBEs. […] Upon application of 10 µM VX-445, a majority of this current was inhibited, averaging 87 ± 4% (n = 3, P < 0.005; Fig. 3B). A summary of the current–voltage (I–V) relationship—normalized to cell capacitance—is shown in Fig. 3C, which also includes the whole-cell I–V in the presence of Tram-34. […] To ensure isolation of KCa3.1 currents and to more fully characterize this VX-445-dependent inhibition of KCa3.1, we utilized HEK cells heterologously expressing KCa3.1 (HEK-KCa3.1). Initially, we confirmed our results from HBEs, using whole-cell recordings, as above. […] In seven experiments, this inhibition averaged 58 ± 7% (P < 0.005). […] It is well recognized that drugs are carried to their targets in the blood bound to albumin, which ranges from 3.4 to 5.4%. Thus, we determined whether VX-445 (10 µM) would inhibit KCa3.1 expressed in HEK cells in the presence of 3.4% albumin. In four experiments, VX-445 inhibited an average of 51 ± 17% of the whole-cell KCa3.1 current, which is not different from that observed in the absence of albumin. To confirm the direct effect of VX-445 on KCa3.1, we utilized the excised, inside-out patch-clamp technique. The patch was then exposed to DCEBIO (100 µM) to further activate the channels ([34–37])—analogous to our Isc studies in HBEs. […] In three experiments, VX-445 inhibited an average of 63 ± 6% of the KCa3.1 current. Based on these experiments, we determined the apparent inhibitory constant, Ki for VX-445. For these experiments, patches were excised into saturating Ca^2+ (3 µM) to ensure maximal KCa3.1 activation. These studies were carried out in the absence of DCEBIO to eliminate the possibility that the inhibition observed was due to competition for the DCEBIO-binding site.
# (§4) HEK cells stably expressing KCa3.1 (IK1, SK4), KCa2.3 (SK3), and KCa2.2 (SK2) were generated and cultured as previously described by us ([37], [66–71]).
# (§5) HEK cells expressing the channel of interest were plated onto poly-L-lysine-coated glass coverslips 1–2 days prior to patch-clamp analysis. Electrophysiological recordings in the excised, inside-out, and whole-cell patch-clamp configurations were performed as recently described ([14]). For excised patch-clamp recordings, the pipette solution contained (in mM): 140 K-gluconate, 5 KCl, 1 CaCl2, 1 MgCl2, and 10 HEPES. The pH was adjusted to 7.2 with KOH. The bath solution contained (in mM): 145 K-gluconate, 5 KCl, 1.3 MgCl2, 10 HEPES, and 1 EGTA. Sufficient CaCl2 was added to obtain the desired free Ca^2+ concentration at a pH of 7.2 (adjusted with KOH). When recording KCa3.1 channels, ATP (300 µM) was added to the bath to diminish channel rundown ([73]). All recordings were carried out at a voltage of −100 mV, referenced to the extracellular compartment, as is standard. The apparent Ki and Hill coefficient for each CFTR corrector on KCa3.1, KCa2.3, and KCa2.2 were determined during a continuous recording by step-wise addition of increasing concentrations of compound and fitting the resultant relative remaining current to a Hill equation (Prism v. 10.1.0). The zero current level was determined by the addition of a 0 Ca^2+ solution (zero-added Ca^2+ plus 1 mM EGTA) at the end of the experiment. In the case of KCa3.1, TRAM-34, a known inhibitor of KCa3.1 ([45]), was used to confirm expression of the channel. For whole-cell experiments, pipettes contained (in mM): 145 K-gluconate, 10 EGTA, 7.5 CaCl2, 2 MgCl2, 3 mM NaATP, and 10 HEPES. The bath solution contained (in mM): 140 K-gluconate, 5 KCl, 1.0 MgCl2, 10 HEPES, and 2 CaCl2. Current–voltage relationships were determined by stepping from a holding potential of −80 mV to +80 mV in 20 mV increments for 400 ms. […]
# [3] = tested on: BKCa (KCa1.1, KCNMA1) channels; design: method as in PMID 38954478; settings: primary HBEs and HEK cells heterologously expressing the channel; cited from earlier work
# WT CFTR HBEs = test: Ussing chamber Isc, DCEBIO-induced Cl- secretion; format: cell-based, human
# Excerpt: as §1, §2
# [4] = target: T2, endogenous KCa3.1 in WT CFTR-expressing HBEs (Homo sapiens, UniProt O15554); test: Whole-cell patch-clamp on undifferentiated HBEs; format: cell-based; settings: TRAM-34 subsequent to VX-445, Fig 3C single cells
# T2 construct: endogenous in cells; host or cells: undifferentiated primary human bronchial epithelial cells (WT CFTR donors)
# Experimental: as §3
# Primary human bronchial epithelial cells (HBEs) were collected from unused or discarded samples from the Center for Organ Recovery and Education via the University of Pittsburgh Pulmonary, Allergy, Critical Care, and Sleep Medicine Lung Biobank and Repository. All experimental procedures involving the use of HBEs were approved by the institutional review board (IRB STUDY19090084) and the Committee for Oversight of Research and Clinical Training Involving Decedents (CORID number 451) at the University of Pittsburgh. At all times, authors were blind to the identity of HBE donors. HBEs were cultured using the Vertex method ([72]). Studies were carried out on WT CFTR HBEs from 11 ([13]) donors and homozygous F508del/F508del CFTR HBEs from five ([5]) separate donors. […]
# KCa3.1 [5] = target: T1, KCa3.1; test: Excised inside-out patch-clamp on HEK-KCa3.1; format: biochemical; settings: TRAM-34 3 µM after DCEBIO and VX-445 10 µM
# Experimental: as §3, §4, §5
compound,measurement,setting,value
C=C[C@@]1(C)CC(=O)[C@]2(O)[C@@]3(C)[C@@H](O)CCC(C)(C)[C@@H]3[C@H](O)[C@H](OC(C)=O)[C@@]2(C)O1 [forskolin],Isc in the presence of forskolin,"[1]; Fig 1F, single filters",31 and 30 and 24 and 28 and 26 and 34 and 27 and 32
same,Isc in the presence of forskolin,"[1]; Fig 2B, single filters",17 and 18 and 23 and 24 and 19 and 21
"CC1(C)C[C@@H]2CCCNc3cccc(n3)S(=O)(=O)NC(=O)c3ccc(-n4ccc(OCCC5C6(CC6)C56CC6)n4)nc3N1C2 [VX-121, vanzacaftor]",inhibition at 10 µM,"KCa3.1 [2]; HEK293, VX-121 10 µM, three experiments, read-out: inhibition of whole-cell KCa3.1 current",85 ± 8%
same,effect on BKCa,[3],act as direct potentiators
CC(C)(O)[C@H]1O[C@H]2CC[C@@]3(C)[C@@](O)(CC[C@H]4Cc5c([nH]c6ccccc56)[C@@]43C)C2=CC1=O [paxilline],Isc in the presence of paxilline,"[1]; Fig 2B, single filters, paxilline 10 µM after forskolin and VX-445",12 and 11 and 15 and 20 and 21 and 19 and 14
same,effect on Isc subsequent to VX-445-induced decrease,[1]; paxilline 10 µM after forskolin and VX-445 10 µM,had no effect
Cc1ccc(NC(=O)C2(c3ccc4c(c3)OC(F)(F)O4)CC2)nc1-c1cccc(C(=O)O)c1 [VX-809],effect on KCa3.1 current,KCa3.1 [2],failed to inhibit
CCCCNc1cc(C(=O)O)cc(S(N)(=O)=O)c1Oc1ccccc1 [bumetanide],Isc in the presence of bumetanide,"[1]; Fig 1F, single filters, after forskolin",21 and 18 and 15 and 17 and 14 and 19 and 23 and 20
CC(=O)Nc1nnc(S(N)(=O)=O)s1 [acetazolamide],effect on the bumetanide-insensitive current,[1],partially inhibited the remaining current
"CC(C)(CO)c1cc2cc(NC(=O)C3(c4ccc5c(c4)OC(F)(F)O5)CC3)c(F)cc2n1C[C@@H](O)CO [VX-661, tezacaftor]",effect on forskolin-mediated Cl- secretion,[1]; VX-661 10 µM,had no effect
same,effect on KCa3.1 current,KCa3.1 [2],had no effect; also recorded: failed to inhibit
same,effect on BKCa,[3],had no effect
"CC(C)(C)c1cc(C(C)(C)C)c(NC(=O)c2c[nH]c3ccccc3c2=O)cc1O [VX-770, ivacaftor]",effect on BKCa,[3],had no effect
Clc1ccccc1C(c1ccccc1)(c1ccccc1)n1cccn1 [TRAM-34],effect on forskolin-stimulated Isc,"[1]; TRAM-34 5 µM, no VX-445",inhibits a portion of the current
same,effect on forskolin-stimulated Isc following VX-445,[1]; TRAM-34 after VX-445 10 µM,failed to inhibit additional current
same,effect on the bumetanide-insensitive current,[1],failed to decrease
same,effect on DCEBIO-stimulated Isc,"WT CFTR HBEs; TRAM-34 5 µM, DCEBIO 100 µM, no VX-445",inhibits the DCEBIO-stimulated Isc response
same,effect on DCEBIO-stimulated Isc following VX-445,WT CFTR HBEs; TRAM-34 after DCEBIO and VX-445 10 µM,had little effect
same,whole-cell current normalized to cell capacitance,[4]; -40 mV,0.875 and 0.576
same,whole-cell current normalized to cell capacitance,[4]; -60 mV,0.344 and 0.305
same,whole-cell current normalized to cell capacitance,[4]; -80 mV,0.0478 and 0.0385
same,effect on current remaining after VX-445,KCa3.1 [2]; TRAM-34 1 µM after VX-445 10 µM,inhibited the remainder of the current
same,effect on current remaining after VX-445,KCa3.1 [5],inhibited the remainder of the current
